One assay has as its target IKKε (Homo sapiens (Human), UniProt Q14164). Nature of the assay: IKKε TR-FRET enzymatic assay. Particulars: TR-FRET, 2×Km ATP; geometric mean of minimum four determinations; read-out: IKKe IC50. It counts as biochemical. For orientation: Time-resolved FRET reads energy transfer from a long-lived donor to a nearby acceptor.
The target in another assay is TBK1 (Homo sapiens (Human), UniProt Q9UHD2). Nature of the assay: TBK1 TR-FRET enzymatic assay.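 Note: phosphorylation of a biotinylated Ser/Thr peptide by purified full-length recombinant TBK1, read by TR-FRET after 240 min at 25 °C, IC50 is the geometric mean of at least four runs.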
Chain of TBK1 (Q9UHD2 whole entry): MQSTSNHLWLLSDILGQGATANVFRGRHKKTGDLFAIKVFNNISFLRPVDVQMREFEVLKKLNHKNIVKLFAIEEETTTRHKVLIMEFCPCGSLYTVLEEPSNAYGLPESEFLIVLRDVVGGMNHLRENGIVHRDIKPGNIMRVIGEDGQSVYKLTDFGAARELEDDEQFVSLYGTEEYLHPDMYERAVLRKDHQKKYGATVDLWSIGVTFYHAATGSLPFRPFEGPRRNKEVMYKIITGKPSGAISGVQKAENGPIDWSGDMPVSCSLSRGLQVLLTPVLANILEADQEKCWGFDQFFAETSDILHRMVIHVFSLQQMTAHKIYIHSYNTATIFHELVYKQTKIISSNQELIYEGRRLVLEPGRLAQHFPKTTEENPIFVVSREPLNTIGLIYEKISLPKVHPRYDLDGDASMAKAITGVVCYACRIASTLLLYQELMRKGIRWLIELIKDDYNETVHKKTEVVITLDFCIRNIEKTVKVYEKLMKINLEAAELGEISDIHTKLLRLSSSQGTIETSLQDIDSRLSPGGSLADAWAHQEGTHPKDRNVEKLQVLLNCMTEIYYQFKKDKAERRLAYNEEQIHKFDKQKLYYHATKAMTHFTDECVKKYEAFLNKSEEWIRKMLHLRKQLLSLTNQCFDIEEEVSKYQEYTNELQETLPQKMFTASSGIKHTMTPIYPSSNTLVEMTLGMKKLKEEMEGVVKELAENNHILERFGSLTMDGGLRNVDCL
Another assay concerns the target hJAK2 (Homo sapiens (Human), UniProt O60674). Kind of assay: hJAK2 LANCE TR-FRET enzymatic assay. In kind it is biochemical. To be noted: read-out: JAK2 IC50.

The text below walks through data of US10040781B2, “Tank-binding kinase inhibitor compounds” (Gilead Sciences, Inc., priority 2014, dated 2018).

Chain of IKKε (Q14164 whole entry): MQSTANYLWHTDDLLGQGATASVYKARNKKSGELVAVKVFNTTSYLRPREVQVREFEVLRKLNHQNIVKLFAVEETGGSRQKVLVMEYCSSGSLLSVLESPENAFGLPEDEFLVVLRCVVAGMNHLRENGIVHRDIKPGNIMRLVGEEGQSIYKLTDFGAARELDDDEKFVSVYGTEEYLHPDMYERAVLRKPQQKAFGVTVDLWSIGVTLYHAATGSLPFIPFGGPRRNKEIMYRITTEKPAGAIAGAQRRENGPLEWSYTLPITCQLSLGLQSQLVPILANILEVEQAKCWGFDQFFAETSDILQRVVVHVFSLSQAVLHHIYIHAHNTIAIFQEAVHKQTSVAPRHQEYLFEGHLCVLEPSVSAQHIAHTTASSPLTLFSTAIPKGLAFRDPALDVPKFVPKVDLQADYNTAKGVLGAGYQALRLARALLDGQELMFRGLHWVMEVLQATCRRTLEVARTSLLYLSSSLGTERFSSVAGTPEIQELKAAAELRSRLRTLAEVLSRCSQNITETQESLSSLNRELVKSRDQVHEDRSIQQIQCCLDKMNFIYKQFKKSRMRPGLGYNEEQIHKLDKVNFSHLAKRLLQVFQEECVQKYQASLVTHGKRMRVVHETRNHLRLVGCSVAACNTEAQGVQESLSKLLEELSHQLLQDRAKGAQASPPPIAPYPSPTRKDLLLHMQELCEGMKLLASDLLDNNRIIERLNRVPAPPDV
Chain of hJAK2 (O60674 whole entry): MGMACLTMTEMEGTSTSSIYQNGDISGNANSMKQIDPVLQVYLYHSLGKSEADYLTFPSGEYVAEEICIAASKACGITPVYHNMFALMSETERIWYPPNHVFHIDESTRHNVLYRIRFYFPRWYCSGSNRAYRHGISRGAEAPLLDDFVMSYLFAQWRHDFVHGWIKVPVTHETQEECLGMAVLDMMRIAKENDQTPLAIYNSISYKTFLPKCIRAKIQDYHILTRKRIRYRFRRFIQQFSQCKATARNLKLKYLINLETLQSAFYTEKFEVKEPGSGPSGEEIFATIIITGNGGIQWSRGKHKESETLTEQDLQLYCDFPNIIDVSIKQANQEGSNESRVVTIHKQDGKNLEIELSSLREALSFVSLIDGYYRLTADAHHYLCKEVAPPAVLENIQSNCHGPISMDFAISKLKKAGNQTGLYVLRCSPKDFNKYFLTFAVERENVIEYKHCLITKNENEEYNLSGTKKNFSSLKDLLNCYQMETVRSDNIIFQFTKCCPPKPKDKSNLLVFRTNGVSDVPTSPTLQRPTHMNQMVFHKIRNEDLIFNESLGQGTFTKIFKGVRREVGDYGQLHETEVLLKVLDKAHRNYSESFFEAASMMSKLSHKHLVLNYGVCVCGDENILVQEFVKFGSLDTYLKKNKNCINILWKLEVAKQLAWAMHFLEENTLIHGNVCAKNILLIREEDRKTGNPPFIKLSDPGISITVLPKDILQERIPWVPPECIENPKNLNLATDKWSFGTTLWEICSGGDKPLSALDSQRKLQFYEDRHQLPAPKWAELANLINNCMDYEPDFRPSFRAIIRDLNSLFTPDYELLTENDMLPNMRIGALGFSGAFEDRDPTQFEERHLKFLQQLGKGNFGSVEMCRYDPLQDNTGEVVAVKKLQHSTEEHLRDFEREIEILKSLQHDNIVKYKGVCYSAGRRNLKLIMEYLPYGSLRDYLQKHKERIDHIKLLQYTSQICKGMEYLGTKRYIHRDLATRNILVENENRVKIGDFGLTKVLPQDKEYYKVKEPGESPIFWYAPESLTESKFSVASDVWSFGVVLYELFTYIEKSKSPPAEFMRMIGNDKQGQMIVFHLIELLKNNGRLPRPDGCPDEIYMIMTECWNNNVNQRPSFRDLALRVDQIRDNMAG

Take `CN1C(=O)CC[C@H]1C(=O)N1CC[C@H](Oc2ccc(-c3ncnc(Nc4ccc(N5CCN(C6COC6)CC5)c(F)c4)n3)cc2C#N)[C@H](F)C1` [Example 408, 2-(((3R,4S)-3-fluoro-1-((S)-1-methyl-5-oxopyrrolidine-2-carbonyl)piperidin-4-yl)oxy)-5-(4-((3-fluoro-4-(4-(oxetan-3-yl)piperazin-1-yl)phenyl)amino)-1,3,5-triazin-2-yl)benzonitrile]: the figures for the IC50 at IKKε, against TBK1 and at hJAK2 were 119 nM, 86 nM and no less than 1000 nM, respectively.
For the compound `C[C@@H](O)C(=O)N1C[C@@H](F)[C@@H](Oc2ccc(-c3ncnc(Nc4ccc(N5CCN(C6COC6)CC5)cc4)n3)cc2C#N)C[C@@H]1C` [Example 412, 2-(((2S,4S,5R)-5-fluoro-1-((R)-2-hydroxypropanoyl)-2-methylpiperidin-4-yl)oxy)-5-(4-((4-(4-(oxetan-3-yl)piperazin-1-yl)phenyl)amino)-1,3,5-triazin-2-yl)benzonitrile], the 50% inhibitory concentration (IC50) on IKKε is 202 nM; on TBK1 it was 43 nM; on hJAK2, no less than 1000 nM.
`N#Cc1cc(-c2ncnc(Nc3ccc(N4CCN(C5COC5)CC4)cc3)n2)ccc1O[C@H]1CCN(C(=O)c2cccc(=O)[nH]2)C[C@H]1F` [Example 413, 2-(((3R,4S)-3-fluoro-1-(6-oxo-1,6-dihydropyridine-2-carbonyl)piperidin-4-yl)oxy)-5-(4-((4-(4-(oxetan-3-yl)piperazin-1-yl)phenyl)amino)-1,3,5-triazin-2-yl)benzonitrile]: the IC50 at IKKε turned out to be 2 nM; on TBK1, 3 nM; at hJAK2 it was 109 nM.
The matching figures for `N#Cc1cc(-c2ncnc(Nc3ccc(N4CCN(C5COC5)CC4)cc3)n2)ccc1O[C@H]1CCN(C(=O)C2CNC(=O)N2)C[C@H]1F` (stereo partly drawn) [Example 414, 2-(((3R,4S)-3-fluoro-1-(2-oxoimidazolidine-4-carbonyl)piperidin-4-yl)oxy)-5-(4-((4-(4-(oxetan-3-yl)piperazin-1-yl)phenyl)amino)-1,3,5-triazin-2-yl)benzonitrile]: 3 nM, 3 nM and 163 nM.
In the case of `C[C@H](O)C(=O)N1C[C@@H](F)[C@@H](Oc2ccc(-c3ncnc(Nc4ccc(N5CCN(C6COC6)CC5)cc4)n3)cc2C#N)C[C@@H]1C` [Example 415, 2-(((2S,4S,5R)-5-fluoro-1-((S)-2-hydroxypropanoyl)-2-methylpiperidin-4-yl)oxy)-5-(4-((4-(4-(oxetan-3-yl)piperazin-1-yl)phenyl)amino)-1,3,5-triazin-2-yl)benzonitrile], the IC50 at IKKε is 142 nM; against TBK1, 58 nM; on hJAK2, no less than 1000 nM.
Take `N#CCCC(=O)N1CC[C@H](Oc2ccc(-c3ncnc(Nc4ccc(N5CCN(C6COC6)CC5)cc4)n3)cc2C#N)[C@H](F)C1` [Example 417, 2-(((3R,4S)-1-(3-cyanopropanoyl)-3-fluoropiperidin-4-yl)oxy)-5-(4-((4-(4-(oxetan-3-yl)piperazin-1-yl)phenyl)amino)-1,3,5-triazin-2-yl)benzonitrile]: the half-maximal inhibitory concentration (IC50) on IKKε came to 79 nM; against TBK1, 17 nM; on hJAK2 it was 694 nM.
`Cc1nnc(C(=O)N2CC[C@H](Oc3ccc(-c4ncnc(Nc5cnn(C(C)(C)C)c5)n4)cc3C#N)[C@H](F)C2)[nH]1` [Example 418, 5-(4-((1-(tert-butyl)-1H-pyrazol-4-yl)amino)-1,3,5-triazin-2-yl)-2-(((3R,4S)-3-fluoro-1-(5-methyl-4H-1,2,4-triazole-3-carbonyl)piperidin-4-yl)oxy)benzonitrile]: the IC50 was determined as 2 nM at IKKε, 4 nM against TBK1 and 212 nM at hJAK2.
The matching figures for `CC(C)(C)n1cc(Nc2ncnc(-c3ccc(O[C@H]4CCN(C(=O)[C@@H](O)CO)C[C@H]4F)c(C#N)c3)n2)cn1` [Example 419, 5-(4-((1-(tert-butyl)-1H-pyrazol-4-yl)amino)-1,3,5-triazin-2-yl)-2-(((3R,4S)-1-((S)-2,3-dihydroxypropanoyl)-3-fluoropiperidin-4-yl)oxy)benzonitrile]: 2 nM, 2 nM and 228 nM.
The matching figures for `CC(C)(C)n1cc(Nc2ncnc(-c3ccc(O[C@H]4CCN(C(=O)CO)C[C@H]4F)c(C#N)c3)n2)cn1` [Example 420, 5-(4-((1-(tert-butyl)-1H-pyrazol-4-yl)amino)-1,3,5-triazin-2-yl)-2-(((3R,4S)-3-fluoro-1-(2-hydroxyacetyl)piperidin-4-yl)oxy)benzonitrile]: 2 nM, 2 nM and 190 nM.
The matching figures for `CN1CC(Oc2ccc(-c3ncnc(Nc4ccc(N5CCN(C6COC6)CC5)cc4)n3)cc2C#N)CNC1=O` (stereo not drawn) [Example 421, 2-((1-methyl-2-oxohexahydropyrimidin-5-yl)oxy)-5-(4-((4-(4-(oxetan-3-yl)piperazin-1-yl)phenyl)amino)-1,3,5-triazin-2-yl)benzonitrile]: 156 nM, 80 nM and 60 nM.
Consider `CN1CC(Oc2ccc(-c3ncnc(Nc4ccc(N5CCN(C6COC6)CC5)cc4)n3)cc2C#N)CCC1=O` (stereo not drawn) [Example 422, 2-((1-methyl-6-oxopiperidin-3-yl)oxy)-5-(4-((4-(4-(oxetan-3-yl)piperazin-1-yl)phenyl)amino)-1,3,5-triazin-2-yl)benzonitrile], for which the values for the half-maximal inhibitory concentration (IC50) on IKKε, on TBK1 and on hJAK2 were 156 nM, 65 nM and 849 nM, respectively.
Consider `N#Cc1cc(-c2ncnc(Nc3ccc(N4CCN(C5COC5)CC4)cc3)n2)ccc1O[C@H]1CCN(C(=O)N2CC[C@@H](F)C2)C[C@H]1F` [Example 423, 2-(((3R,4S)-3-fluoro-1-((R)-3-fluoropyrrolidine-1-carbonyl)piperidin-4-yl)oxy)-5-(4-((4-(4-(oxetan-3-yl)piperazin-1-yl)phenyl)amino)-1,3,5-triazin-2-yl)benzonitrile], for which the IC50 came out at 55 nM on IKKε, 16 nM against TBK1 and 681 nM on hJAK2.
The matching figures for `N#Cc1cc(-c2ncnc(Nc3ccc(N4CCN(C5COC5)CC4)cc3)n2)ccc1O[C@H]1CCN(C(=O)N2CCCC2)C[C@H]1F` [Example 424, 2-(((3R,4S)-3-fluoro-1-(pyrrolidine-1-carbonyl)piperidin-4-yl)oxy)-5-(4-((4-(4-(oxetan-3-yl)piperazin-1-yl)phenyl)amino)-1,3,5-triazin-2-yl)benzonitrile]: 12 nM, 6 nM and no less than 1000 nM.
As for `N#Cc1cc(-c2ncnc(Nc3ccc(N4CCN(C5COC5)CC4)cc3)n2)ccc1O[C@H]1CCN(C(=O)N2CC[C@@H](O)C2)C[C@H]1F` [Example 425, 2-(((3R,4S)-3-fluoro-1-((R)-3-hydroxypyrrolidine-1-carbonyl)piperidin-4-yl)oxy)-5-(4-((4-(4-(oxetan-3-yl)piperazin-1-yl)phenyl)amino)-1,3,5-triazin-2-yl)benzonitrile], the IC50 at IKKε is 21 nM; against TBK1, 7 nM; on hJAK2, 590 nM.
The matching figures for `N#Cc1cc(-c2ncnc(Nc3ccc(N4CCN(C5COC5)CC4)cc3)n2)ccc1O[C@H]1CCN(C(=O)N2CC[C@H](O)C2)C[C@H]1F` [Example 426, 2-(((3R,4S)-3-fluoro-1-((S)-3-hydroxypyrrolidine-1-carbonyl)piperidin-4-yl)oxy)-5-(4-((4-(4-(oxetan-3-yl)piperazin-1-yl)phenyl)amino)-1,3,5-triazin-2-yl)benzonitrile]: 201 nM, 79 nM and no less than 1000 nM.
Taken in the same sequence, the figures for `COCCNC(=O)N1CC[C@H](Oc2ccc(-c3ncnc(Nc4ccc(N5CCN(C6COC6)CC5)cc4)n3)cc2C#N)[C@H](F)C1` [Example 427, (3R,4S)-4-(2-cyano-4-(4-((4-(4-(oxetan-3-yl)piperazin-1-yl)phenyl)amino)-1,3,5-triazin-2-yl)phenoxy)-3-fluoro-N-(2-methoxyethyl)piperidine-1-carboxamide] were 74 nM, 31 nM and no less than 1000 nM.
Taken in the same sequence, the figures for `CN(CCO)C(=O)N1CC[C@H](Oc2ccc(-c3ncnc(Nc4ccc(N5CCN(C6COC6)CC5)cc4)n3)cc2C#N)[C@H](F)C1` [Example 428, (3R,4S)-4-(2-cyano-4-(4-((4-(4-(oxetan-3-yl)piperazin-1-yl)phenyl)amino)-1,3,5-triazin-2-yl)phenoxy)-3-fluoro-N-(2-hydroxyethyl)-N-methylpiperidine-1-carboxamide] were 64 nM, 41 nM and no less than 1000 nM.
Turning to `N#Cc1cc(-c2ncnc(Nc3ccc(N4CCN(C5COC5)CC4)cc3)n2)ccc1O[C@H]1CCN(C(=O)NCCO)C[C@H]1F` [Example 429, (3R,4S)-4-(2-cyano-4-(4-((4-(4-(oxetan-3-yl)piperazin-1-yl)phenyl)amino)-1,3,5-triazin-2-yl)phenoxy)-3-fluoro-N-(2-hydroxyethyl)piperidine-1-carboxamide], the IC50 stood at 33 nM on IKKε, 12 nM against TBK1 and 601 nM at hJAK2.
On to `C[C@H](O)C(=O)N1C[C@@H](C)[C@H](Oc2ccc(-c3ncnc(Nc4ccc(N5CCN(C6COC6)CC5)cc4)n3)cc2C#N)C(F)(F)C1` [Example 431, trans-2-((3,3-difluoro-1-((S)-2-hydroxypropanoyl)-5-methylpiperidin-4-yl)oxy)-5-(4-((4-(4-(oxetan-3-yl)piperazin-1-yl)phenyl)amino)-1,3,5-triazin-2-yl)benzonitrile], for which the figures for the IC50 on IKKε, against TBK1 and on hJAK2 were 17 nM, 11 nM and 496 nM, respectively.
The matching figures for `C[C@@H](N)C(=O)N1CC[C@H](Oc2ccc(-c3ncnc(Nc4ccc(N5CCN(C6COC6)CC5)cc4)n3)cc2C#N)[C@H](F)C1` [Example 433, 2-(((3R,4S)-1-((R)-2-aminopropanoyl)-3-fluoropiperidin-4-yl)oxy)-5-(4-((4-(4-(oxetan-3-yl)piperazin-1-yl)phenyl)amino)-1,3,5-triazin-2-yl)benzonitrile]: 283 nM, 76 nM and no less than 1000 nM.

What is called IC50 is the concentration that inhibits the measured activity by half.
